Target: T1, hTRPML1 (Homo sapiens, UniProt Q9GZU1)
T1 construct: expressed in transfected cells
Experiment: Cellular TRPML1 assay (FLIPR, GCaMP6f calcium read-out)
Format: cell-based
Conditions: HEK T-REx/GCaMP6f/TRPML1 cells, FLIPR TETRA, kinetic response over 300 seconds; read-out: hTRPML1 FLIPR pEC50 (converted)
Description: Buffers and reagents • PBS (D-PBS without calcium and magnesium; EuroClone) • Trypsin (Trypsin 0.05%, EDTA 0.02% in PBS; EuroClone) • DMSO (Sigma) • Ca^2+ free Tyrode's buffer: in-house solution (130 mM NaCl, 5 mM KCl, 1 mM MgCl2, 5 mM NaHCO3, 20 mM HEPES in water at pH 7.4; sterile filtered). • Opti-MEM (Gibco) • Agonist: ML-SA1 (Sigma); stock: 60 mM in DMSO, stored at −20° C. • Blocker: ML-SI3 (in house synthesis); stock: 20 mM in DMSO, stored at −20° C.
Cell line • The final clone for the TRPML1 assay is HEK T-REx/GCaMP6f/TRPML1. • GCaMP6f is a genetically encoded calcium indicator that is stably expressed in this cell line and used as a fluorescent read-out.
Cells are seeded at 15000 cells/well either in 25 µl/well of growth medium or in 20 μl/well of Optimem+0.5% FBS without selection antibiotics. Twenty-four hours later, cells are assayed for the response to various compounds using the Ca^2+ sensitive GCaMP6f protein stably expressed in the cells as readout.
The experiment is performed in a 384-well format according to the following procedures for either Ca^2+ free or Optimem conditions: • Ca^2+ free condition (in absence of extracellular Ca^2+): • 24 h after seeding, pre-incubate the cells at room temperature for about 10′. • Then remove the culture medium and replace it with 20 μL of Ca^2+ free Tyrode's buffer. • Start the experiment at the FLIPR^TETRA by injecting 10 μL/w of 3× concentrated test compounds and controls in Ca^2+ free Tyrode's buffer. Monitor the kinetic response over a period of 300 seconds. • Final DMSO concentration: 0.5% • Optimem condition (in presence of extracellular Ca^2+): • 24 h after seeding, pre-incubate the cells at room temperature for about 10′. • Start the experiment at the FLIPR^TETRA by injecting 10 μL/w of 3× concentrated test compounds and controls in Ca^2+ free Tyrode's buffer. Monitor the kinetic response over a period of 300 seconds. • Final DMSO concentration: 0.5%
Data from FLIPR^TETRA measurements are analyzed with the Genedata Screener© software.

T1 sequence (Q9GZU1 whole entry): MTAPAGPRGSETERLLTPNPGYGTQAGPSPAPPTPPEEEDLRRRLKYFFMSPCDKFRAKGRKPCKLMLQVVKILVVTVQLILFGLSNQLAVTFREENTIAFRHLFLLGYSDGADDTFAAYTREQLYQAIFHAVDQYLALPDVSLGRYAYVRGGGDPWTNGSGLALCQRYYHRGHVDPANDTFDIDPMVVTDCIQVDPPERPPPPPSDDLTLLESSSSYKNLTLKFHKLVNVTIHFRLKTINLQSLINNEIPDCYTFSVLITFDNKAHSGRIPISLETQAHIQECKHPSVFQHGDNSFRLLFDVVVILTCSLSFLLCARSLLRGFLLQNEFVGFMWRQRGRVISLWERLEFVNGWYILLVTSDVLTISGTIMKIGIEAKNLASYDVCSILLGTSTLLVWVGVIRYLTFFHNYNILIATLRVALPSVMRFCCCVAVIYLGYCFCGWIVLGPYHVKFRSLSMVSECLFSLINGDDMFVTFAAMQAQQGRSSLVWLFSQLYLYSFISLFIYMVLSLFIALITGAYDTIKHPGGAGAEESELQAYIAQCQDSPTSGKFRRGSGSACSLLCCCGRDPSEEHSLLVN

| Structure (SMILES) | EC50 [µM] |
| --- | --- |
| CN(C)S(=O)(=O)c1ccc(S(=O)(=O)Nc2ccccc2N2CCC[C@H](OCc3ccccc3)C2)cc1 (single isomer, unassigned) [Example 26] | 1 to 3.16 |
| CN(C)S(=O)(=O)c1ccc(S(=O)(=O)Nc2ccccc2N2CCC[C@@H](OCc3ccccc3)C2)cc1 (single isomer, unassigned) [Example 27] | 1 to 3.16 |
| CN(C)S(=O)(=O)c1ccc(S(=O)(=O)Nc2ccccc2N2CCC[C@H](Oc3ccccc3)C2)cc1 (single isomer, unassigned) [Example 29] | > 3.16 |
| CN(C)S(=O)(=O)c1ccc(S(=O)(=O)Nc2ccccc2N2CCC[C@@H](Oc3ccccc3)C2)cc1 (single isomer, unassigned) [Example 30] | 1 to 3.16 |
| CN(C)S(=O)(=O)c1ccc(S(=O)(=O)Nc2ccccc2N2CCC[C@H](COc3ccccc3)C2)cc1 (single isomer, unassigned) [Example 35] | 1 to 3.16 |
| CN(C)S(=O)(=O)c1ccc(S(=O)(=O)Nc2ccccc2N2CCC[C@@H](COc3ccccc3)C2)cc1 (single isomer, unassigned) [Example 36] | 1 to 3.16 |
| COCCN(C(=O)c1ccc(S(=O)(=O)N(C)C)cc1)c1ccccc1N1CCC(Oc2ccccc2)CC1 [Example 3, 4-(N,N-dimethylsulfamoyl)-N-(2-methoxyethyl)-N-(2-(4-phenoxypiperidin-1-yl)phenyl)benzamide] | > 3.16 |
| CCCN(C(=O)c1ccc(S(=O)(=O)N(C)C)cc1)c1ccccc1N1CCC(Oc2ccccc2)CC1 [Example 4, 4-(N,N-dimethylsulfamoyl)-N-(2-(4-phenoxypiperidin-1-yl)phenyl)-N-propylbenzamide] | 1 to 3.16 |
| CN(C)S(=O)(=O)c1ccc(C(=O)N(c2ccccc2N2CCC(Oc3ccccc3)CC2)C2CC2)cc1 [Example 5, N-cyclopropyl-4-(N,N-dimethylsulfamoyl)-N-(2-(4-phenoxypiperidin-1-yl)phenyl)benzamide] | > 3.16 |
| CN(C)S(=O)(=O)c1ccc(S(=O)(=O)Nc2cccc(Cl)c2N2CCC(Oc3ccccn3)CC2)cc1 [Example 7, N^1-(3-chloro-2-(4-(pyridin-2-yloxy)piperidin-1-yl)phenyl)-N^4,N^4-dimethylbenzene-1,4-disulfonamide] | 1 to 3.16 |
| CN(C(=O)c1ccc(S(=O)(=O)N(C)C)cc1)c1cccc(F)c1N1CCC(Oc2ccccn2)CC1 [Example 9, 4-(N,N-dimethylsulfamoyl)-N-(3-fluoro-2-(4-(pyridin-2-yloxy)piperidin-1-yl)phenyl)-N-methylbenzamide] | > 3.16 |
| CC(C)N(C(=O)c1ccc(S(=O)(=O)N(C)C)cc1)c1cccc(F)c1N1CCC(Oc2ccccn2)CC1 [Example 11, 4-(N,N-dimethylsulfamoyl)-N-(3-fluoro-2-(4-(pyridin-2-yloxy)piperidin-1-yl)phenyl)-N-isopropylbenzamide] | > 3.16 |
| CN(C)S(=O)(=O)c1ccc(C(=O)N(c2cccc(F)c2N2CCC(Oc3ccccn3)CC2)C2CCC2)cc1 [Example 12, N-cyclobutyl-4-(N,N-dimethylsulfamoyl)-N-(3-fluoro-2-(4-(pyridin-2-yloxy)piperidin-1-yl)phenyl)benzamide] | > 3.16 |
| CN(C)S(=O)(=O)c1ccc(S(=O)(=O)Nc2cc(Cl)ccc2N2CCC(Oc3ccccn3)CC2)cc1 [Example 13, N^1-(5-chloro-2-(4-(pyridin-2-yloxy)piperidin-1-yl)phenyl)-N^4,N^4-dimethylbenzene-1,4-disulfonamide] | 1 to 3.16 |
| Cc1ccc(N2CCC(Oc3ccccn3)CC2)c(NS(=O)(=O)c2ccc(S(=O)(=O)N(C)C)cc2)c1 [Example 14, N^1,N^1-dimethyl-N^4-(5-methyl-2-(4-(pyridin-2-yloxy)piperidin-1-yl)phenyl)benzene-1,4-disulfonamide] | < 1 |
| CCS(=O)(=O)c1ccc(S(=O)(=O)Nc2cccc(F)c2N2CCC(Oc3ccccn3)CC2)cc1 [Example 15, 4-(ethylsulfonyl)-N-(3-fluoro-2-(4-(pyridin-2-yloxy)piperidin-1-yl)phenyl)benzenesulfonamide] | 1 to 3.16 |

Reference: US20240254083A1, “HETEROCYCLIC TRPML1 AGONISTS AND USES THEREOF” (Libra Therapeutics, Inc., priority 2021, published 2024)
